Laboratory results taken from patent publication US5763596A, “C-4' modified adenosine kinase inhibitors” (Metabasis Therapeutics, Inc., priority 1996, dated 1998).

Key:
Female SA rats = test: liver toxicity, serum SGOT, SGPT and total bilirubin; assay type: in vivo, rat; parameters: unit not given here; details: 2 x 37.5 μmol/kg i.v. infusion (total 75 μmol/kg), 12 h after second dose
Method: Female SA rats (150-200 g) were anesthetized with halothane and cannulated via the internal jugular vein. The animals were allowed to recover for 3 days. […] Twelve hours later, an additional 37.5 μmol kg was infused over 40 minutes (total dose=75 μmol/kg). Twelve hours after the second dose, the animals were anesthetized with halothane and exsanguinated through the descending aorta. Serum was prepared and liver enzymes (serum glutamic-oxaloacetic transaminase (SGOT), serum glutamic-pyruvic transaminase (SGPT)) and total bilirubin in the serum samples were determined by a commercial laboratory.

male SA rats [1] = test: rat skin lesion model, inhibition of neutrophil accumulation induced by carrageenan; assay type: in vivo
Method: The dorsal skin of male SA rats was shaved and carrageenan (Type λ) or phosphate-buffered saline was injected intradermally. Three hours later, the injection sites were biopsied and weighed. Neutrophil content of the skin biopsies was measured as the quantity of myeloperoxidase (MPO) present in a tissue homogenate. The excised, weighed skin pieces were placed in 4 ml 0.5% mixed alkyl trimethylammonium bromide and homogenized at the highest speed for 15 seconds in a Polytron homogenizer (Brinkmann Instruments, Westbury, N.Y.). Lipids were extracted by adding 1 ml of dichloromethane to the homogenate, vortexing vigorously, and centrifuging at 1000 g, 5° C. for 15 min. Fifty μl of each supernatant was added in duplicate to a 96 well assay plate, along with dilutions of human myeloperoxidase standard. Potassium phosphate buffer (pH 6.1) containing 0.36 mg/ml of o-dianisidine dihydrochloride and 0.001% hydrogen peroxide was added (200 μl/well), and the absorbance at 450 nm was read after 5 min incubation at room temperature. The myeloperoxidase content of each skin piece was calculated from a standard curve constructed using least-square regression, and expressed as units of MPO/g of tissue.
AK inhibitors were administered orally using polyethylene glycol-400 as vehicle or intraperitoneally using dimethylsulfoxide as vehicle, at indicated time before skin lesion injection. For each experiment, the average of all values from saline-induced lesions was calculated. This baseline value was then subtracted from values obtained from carrageenan-induced lesions. Percent inhibition for AK inhibitors were calculated from these baseline-corrected values.

male SA rats [2] = test: anticonvulsant activity, maximal electroshock (MES) model; assay type: in vivo; details: Rattus norvegicus, ip, 1 h before MES; >5 / <5: fewer / more than 50% of animals inhibited at 5 mg/kg in initial screen
Method: The anticonvulsant activity of the tested compounds was evaluated in male SA rats (100-150 g, Simonsen) using the maximal electroshock (MES) model described in Swinyard et al., Antiepileptic Drugs, 3d Ed. at 85-102 (Levy, et al., eds.), NY: Raven Press (1989). The rats were maintained on a 12/12 light/dark cycle in temperature controlled facilities with free access to food and water. For p.o. administration, the animals are fasted overnight, prior to the experiment. One hour prior to seizure testing, the animals were injected interperitoneally (ip) or orally (per os, po) with one of various doses of test compound dissolved in DMSO or PEG 400.
Maximal electroshock seizures (MES) were induced by administering a 150 mA, 60 Hz current for 0.2 seconds via corneal electrodes using a Wahlquist Model H stimulator. […] This endpoint was expressed as the percentage of animals in which the response was inhibited. Typically, compounds were screened initially at one hour following a dose of 5 mg/kg ip. […] The results for exemplary compounds of the invention are set forth in Table 8, expressed as ED50 values.

Rats = test: anti-inflammatory activity, carrageenan paw; assay type: in vivo, rat; details: 10 mg/kg, swelling after 3 hours
Method: Carrageenan (Type λ) was suspended in sterile PBS at 1% (w/v), autoclaved for 30 minutes, and stored at room temperature. Rats were pretreated with vehicle or AK inhibitor (10 mg/kg) by oral gavage or i.p. administration and the volume of the left hind paw was measured using a water displacement plethysmometer (Stoelting Co., Wood Dale, Ill.). One hour after oral treatment or 30 minutes after i.p. treatment, the rats were briefly anaesthetized, and 0.1 ml of the carrageenan solution was injected subcutaneously into the planar surface of the left hind paw. The ensuing paw swelling was measured by plethysmometry after 3 hours. The paw volume in milliliters was subtracted from the pre-injection paw volume. Data are presented in Table 8 as the percent inhibition of paw swelling in AK inhibitor treated animals, compared to vehicle treated control animals.

Rats (male, Simonsen) = test: formalin paw model; assay type: in vivo, rat; parameters: concentration or dose not given beside the values; details: oral, 90 min before formalin
Method: In this assay, injection of formalin, an irritant, into the hindpaw of rats typically evokes a biphasic response of pain-related behaviors. Phase 1 of the response which is brief, lasting approximately 0-5 min post-injection,is followed by a more prolonged phase 2, lasting approximately 10-80 min post-injection. Phase 1 behavior is thought to be a direct effect of the irritant on nociceptors at the injection site while phase 2 behavior is thought to include a hyperalgesic component mediated by sensitization of neuronal elements within the spinal cord. Studies from other laboratories have found the first portion of Phase 2 (sometimes referred to as Phase 2a) to be most responsive to pharmacological manipulation.
Rats (male, Simonsen) weighing between 100-200 g, are used in the present experiments. For screening purposes drugs are administered orally 90 min prior to initiation of formalin test. At designated intervals the animals in groups of 4 are placed individually in a small animal restrainer with the right hindpaw accessible through a hole in the bottom of the restrainer. The formalin paw assay is initiated by the injection using a 30G needle of 50 μl of a 5% formalin solution in saline into the right plantar surface of each hindpaw. The rat is then immediately placed in a separate plexiglass box and scoring (described below) of the animal's behavior is begun at 1.7 min after formalin injection. The instantaneous behavior of each animal in a group of 4 was observed and assigned a score once in each 20 second interval. This sequence is repeated over a 30 min period. The scoring protocol is an adaptation of the method published by Dubuisson and Dennis (Pain 4:161-174, 1977) which assigns a score from 0-3 as follows:
0--no discernible favoring of injected paw, weight evenly distributed
1--injected paw is favored, rests lightly on floor
2--injected paw is elevated
3--injected paw is vigorously licked, bitten or shake
Scores are continuously recorded directly onto an Excel spreadsheet. […] 2) the total number of incidences specifically of licking/biting behavior is summed over Phase 2 and mean values determined from 6 different animals with results expressed as % inhibition compared to vehicle control.

**Q.** What does the source list for `O[C@@H]1[C@H](O)CO[C@H]1n1cc(-c2ccccc2)c2c(Nc3ccc(F)cc3)ncnc21` [compound 28]?
**A.** average serum Total Bilirubin (Female SA rats): 0.07; average serum content of SGOT (Female SA rats): 61; average serum content of SGPT (Female SA rats): 23; % inhibition of neutrophil accumulation (male SA rats [1]; i.p., pretreatment 30 min, 3 mg/kg): 18%; % inhibition of neutrophil accumulation (male SA rats [1]; i.p., pretreatment 30 min, 10 mg/kg): 62%; % inhibition of neutrophil accumulation (male SA rats [1]; i.p., pretreatment 30 min, 30 mg/kg): 79%; % inhibition of neutrophil accumulation (male SA rats [1]; i.p., pretreatment 60 min, 10 mg/kg): 49%; % inhibition of neutrophil accumulation (male SA rats [1]; i.p., pretreatment 120 min, 10 mg/kg): 60%; % inhibition of neutrophil accumulation (male SA rats [1]; i.p., pretreatment 240 min, 10 mg/kg): 28%; % inhibition of neutrophil accumulation (male SA rats [1]; p.o., pretreatment 60 min, 10 mg/kg): 28%; % inhibition of neutrophil accumulation (male SA rats [1]; p.o., pretreatment 60 min, 20 mg/kg): 40%; % inhibition of neutrophil accumulation (male SA rats [1]; p.o., pretreatment 120 min, 20 mg/kg): 84%; % inhibition of neutrophil accumulation (male SA rats [1]; p.o., pretreatment 240 min, 20 mg/kg): 77%; % inhibition of neutrophil accumulation (male SA rats [1]; p.o., pretreatment 420 min, 20 mg/kg): 20%; ED50 at 5 mg/kg (male SA rats [2]): < 5 mg/kg; Carrageenan Paw (% inh) i.p. (Rats; i.p., 30 min before carrageenan): 52%; Carrageenan Paw (% inh) p.o. (Rats; p.o., 1 h before carrageenan): 25%; % Inhibition Phase 1 Composite score (Rats (male, Simonsen); 1.7-5 min post-formalin): 9.2%; % Inhibition Phase 2 Composite score (Rats (male, Simonsen); 10.3-30 min post-formalin): 37.4%; % Inhibition Phase 2. Licking/biting (Rats (male, Simonsen); Phase 2): 76.1%
